Laboratory results: ChEMBL document CHEMBL6134800, “Applications of innovative synthetic strategies in anticancer drug discovery: The driving force of new chemical reactions” (Bioorg Med Chem Lett, 2025)
Values after ≈ are worked out from the molar mass of the structure shown.

Assays:
HCT-116 [1] = assay: Antiproliferative activity against human HCT-116 cells assessed as inhibition of cell growth at 20 uM incubated for 48 hrs by MTT assay relative to control; format: functional
A549 [2] = assay: Antiproliferative activity against human A549 cells assessed as inhibition of cell growth at 20 uM incubated for 48 hrs by MTT assay relative to control; format: functional
HepG2 [3] = assay: Cytotoxicity against human HepG2 cells assessed as reduction in cell viability incubated for 24 hrs by CCK-8 assay; format: functional, cell-based; conditions: HepG2, 24 h
K562 = assay: Antiproliferative activity against human K562 cells assessed as reduction in cell viability incubated for 72 hrs by Celltiter-Glo reagent based assay; format: functional; conditions: K562, 72 h
Jurkat = assay: Antiproliferative activity against human Jurkat cells assessed as reduction in cell viability incubated for 72 hrs by Celltiter-Glo reagent based assay; format: functional
HeLa [4] = assay: Antiproliferative activity against human Hela cells by MTT assay; format: functional, cell-based
4T1 = assay: Anticancer activity against mouse 4T1 cells assessed as reduction in cell growth; format: functional, cell-based
HeLa [5] = assay: Anticancer activity against human HeLa cells assessed as reduction in cell growth; format: functional, cell-based
MDA-MB-231 [6] = assay: Cytotoxicity against human MDA-MB-231 cells assessed as reduction in cell viability incubated for 24 hrs by CCK-8 assay; format: functional, cell-based; conditions: MDA-MB-231, 24 h
KBv200 = assay: Cytotoxicity against human KBv200 cells assessed as reduction in cell viability incubated for 72 hrs by SRB assay; format: functional, cell-based; conditions: KBv200, 72 h
K562/Adr [7] = assay: Antiproliferative activity against human K562/Adr cells assessed as reduction in cell growth incubated for 72 hrs by MTT assay; format: functional, cell-based
MCF7 [8] = assay: Antiproliferative activity against human MCF7 cells assessed as reduction in cell growth; format: functional, cell-based
MCF7 [9] = assay: Antiproliferative activity against human MCF7 cells assessed as reduction in cell viability incubated for 72 hrs by MTT assay; format: functional, cell-based; conditions: MCF7, 72 h
CAL-27 = assay: Antiproliferative activity against human CAL-27 cells assessed as reduction in cell viability incubated for 24 hrs by MTT assay; format: functional, cell-based; conditions: CAL-27, 24 h
HeLa [10] = assay: Antiproliferative activity against human HeLa cells; format: functional, cell-based
HCC1806 = assay: Antiproliferative activity against human HCC1806 cells assessed as inhibition of cell growth at 30 uM relative to control; format: functional
Candida albicans = assay: Antifungal activity against Candida albicans MTCC 3020 assessed as reduction in fungal growth; format: functional
[11] = molecular target: Indoleamine 2,3-dioxygenase 1 (Homo sapiens, UniProt P14902); assay: Inhibition of N-terminal His-tagged human IDO1 extracted from Escherichia coli
Chain of Indoleamine 2,3-dioxygenase 1 (P14902 whole entry): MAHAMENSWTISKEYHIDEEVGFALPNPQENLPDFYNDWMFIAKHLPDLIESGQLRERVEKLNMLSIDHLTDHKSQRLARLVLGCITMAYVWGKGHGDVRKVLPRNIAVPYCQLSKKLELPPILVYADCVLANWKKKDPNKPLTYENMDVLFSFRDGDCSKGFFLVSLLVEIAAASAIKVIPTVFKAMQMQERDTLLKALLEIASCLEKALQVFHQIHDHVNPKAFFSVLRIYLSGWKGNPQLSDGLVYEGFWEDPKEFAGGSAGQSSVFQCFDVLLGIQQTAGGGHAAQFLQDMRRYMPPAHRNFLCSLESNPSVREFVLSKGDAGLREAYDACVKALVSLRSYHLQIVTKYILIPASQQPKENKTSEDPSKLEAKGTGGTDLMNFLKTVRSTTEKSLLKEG

[12] = system: Mycobacterium tuberculosis; assay: Antimycobacterial activity against Mycobacterium tuberculosis H37Rv assessed as bacterial growth inhibition by microplate Alamar blue assay; format: functional
MDA-MB-231 [13] = assay: Antiproliferative activity against human MDA-MB-231 cells assessed as reduction in cell viability incubated for 72 hrs by Celltiter-Glo reagent based assay; format: functional; conditions: MDA-MB-231, 72 h
HepG2 [14] = assay: Antiproliferative activity against human HepG2 cells assessed as reduction in cell viability incubated for 72 hrs by Celltiter-Glo reagent based assay; format: functional; conditions: HepG2, 72 h
U-87 MG = assay: Antiproliferative activity against human U-87 MG cells assessed as reduction in cell viability by MTT assay; format: functional, cell-based, U-87MG ATCC
A549 [15] = assay: Antiproliferative activity against human A549 cells assessed as reduction in cell growth by MTT assay; format: functional, cell-based
HeLa [16] = assay: Antiproliferative activity against human HeLa cells assessed as reduction in cell growth by MTT assay; format: functional, cell-based
K562/Adr [17] = assay: Reversal of multidrug resistance in human K562/Adr cells assessed as reversal fold by measuring ratio of adriamycin IC50 to adriamycin IC50 in presence of test compound at 10 uM; format: functional
MDA-MB-231 [18] = assay: Cytotoxicity against human MDA-MB-231 cells assessed as reduction in cell viability incubated for 48 hrs by SRB assay; format: functional, cell-based; conditions: MDA-MB-231, 48 h
MCF7 [19] = assay: Cytotoxicity against human MCF7 cells assessed as reduction in cell viability incubated for 48 hrs by SRB assay; format: functional, cell-based; conditions: MCF7, 48 h
DU-145 = assay: Cytotoxicity against human DU-145 cells assessed as reduction in cell viability incubated for 48 hrs by SRB assay; format: functional, cell-based; conditions: DU-145, 48 h
HeLa [20] = assay: Cytotoxicity against human HeLa cells assessed as reduction in cell viability incubated for 48 hrs by SRB assay; format: functional, cell-based
HepG2 [21] = assay: Cytotoxicity against human HepG2 cells assessed as reduction in cell viability incubated for 48 hrs by SRB assay; format: functional, cell-based; conditions: HepG2, 48 h
SMMC-7721 = assay: Antiproliferative activity against human SMMC-7721 cells by CCK8 assay; format: functional, cell-based
L02 = assay: Antiproliferative activity against human L02 cells by CCK8 assay; format: functional, cell-based
QGY-7703 = assay: Antiproliferative activity against human QGY-7703 cells by CCK8 assay; format: functional, cell-based
MDA-MB-231 [22] = assay: Antiproliferative activity against human MDA-MB-231 cells by CCK8 assay; format: functional, cell-based
HeLa [23] = assay: Antiproliferative activity against human HeLa cells assessed as reduction in cell viability by MTT assay; format: functional, cell-based
HCT-116 [24] = assay: Antiproliferative activity against human HCT-116 cells by MTT assay; format: functional, cell-based
[25] = molecular target: Lysine-specific demethylase 5C (Homo sapiens, UniProt P41229); assay: Inhibition of KDM5C (unknown origin)
Chain of Lysine-specific demethylase 5C (P41229 whole entry): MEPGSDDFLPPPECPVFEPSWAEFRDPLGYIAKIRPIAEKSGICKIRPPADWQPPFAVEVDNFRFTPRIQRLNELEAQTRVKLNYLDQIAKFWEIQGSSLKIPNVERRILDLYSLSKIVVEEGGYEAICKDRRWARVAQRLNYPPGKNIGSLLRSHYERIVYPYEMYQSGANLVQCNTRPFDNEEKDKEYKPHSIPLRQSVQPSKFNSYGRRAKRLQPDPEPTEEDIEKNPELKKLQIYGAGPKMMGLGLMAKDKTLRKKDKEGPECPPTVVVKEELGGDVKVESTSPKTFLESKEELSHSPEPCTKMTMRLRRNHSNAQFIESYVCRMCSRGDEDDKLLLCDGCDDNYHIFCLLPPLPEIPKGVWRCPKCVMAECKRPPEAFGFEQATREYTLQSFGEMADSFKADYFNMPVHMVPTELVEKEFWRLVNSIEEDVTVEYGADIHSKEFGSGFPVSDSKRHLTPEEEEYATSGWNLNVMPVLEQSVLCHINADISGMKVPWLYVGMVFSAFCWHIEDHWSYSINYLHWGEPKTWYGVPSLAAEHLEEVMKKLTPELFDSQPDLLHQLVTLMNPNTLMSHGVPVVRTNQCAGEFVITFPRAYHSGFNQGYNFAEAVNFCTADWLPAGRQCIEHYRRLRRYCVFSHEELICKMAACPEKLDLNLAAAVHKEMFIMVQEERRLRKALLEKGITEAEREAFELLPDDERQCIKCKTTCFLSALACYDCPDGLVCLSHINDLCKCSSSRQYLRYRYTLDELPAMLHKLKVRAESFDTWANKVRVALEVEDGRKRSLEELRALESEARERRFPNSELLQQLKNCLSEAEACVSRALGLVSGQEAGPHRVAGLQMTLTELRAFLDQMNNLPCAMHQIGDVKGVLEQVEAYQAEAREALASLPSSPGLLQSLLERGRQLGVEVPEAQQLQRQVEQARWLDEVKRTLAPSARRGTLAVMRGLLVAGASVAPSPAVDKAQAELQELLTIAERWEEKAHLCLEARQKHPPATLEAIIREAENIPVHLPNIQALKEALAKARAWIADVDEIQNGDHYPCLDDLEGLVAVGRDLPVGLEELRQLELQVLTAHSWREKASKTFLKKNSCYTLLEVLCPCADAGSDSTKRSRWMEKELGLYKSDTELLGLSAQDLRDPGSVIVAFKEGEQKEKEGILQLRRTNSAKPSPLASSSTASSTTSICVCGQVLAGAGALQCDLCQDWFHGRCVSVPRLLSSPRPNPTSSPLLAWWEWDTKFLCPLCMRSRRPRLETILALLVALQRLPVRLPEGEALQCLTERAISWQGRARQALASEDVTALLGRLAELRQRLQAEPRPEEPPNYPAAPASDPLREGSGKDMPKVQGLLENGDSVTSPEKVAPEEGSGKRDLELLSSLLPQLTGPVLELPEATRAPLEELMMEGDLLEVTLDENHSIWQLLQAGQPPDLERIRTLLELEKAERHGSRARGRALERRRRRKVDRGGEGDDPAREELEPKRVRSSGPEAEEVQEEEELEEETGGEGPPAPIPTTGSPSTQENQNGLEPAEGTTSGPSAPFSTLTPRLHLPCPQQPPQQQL

COc1ccc(-c2c(-c3cc(OC)c(OC)c(OC)c3)cc(-c3cc(OC)c(OC)c(OC)c3)oc2=O)cc1OC
inhibition at 20 µM (HCT-116 [1]): 89.4%
inhibition at 20 µM (A549 [2]): 82.9%

FC(F)(F)C1(Nc2ccccc2)Cc2ccsc2-c2nc3ccccc3n21 (centres undefined)
IC50 (HepG2 [3]): 9600 nM

O=C1C=CC2(O)c3c(nc4c(c3-c3ccccc3)c3ccccc3n4Cc3ccccc3)OC2C1 (centres undefined)
IC50 (K562): 2100 nM
IC50 (Jurkat): 900 nM

O=C(Nc1cccc2cccnc12)c1ccccc1-c1ccc2c(c1)c1ccccc1n2-c1ccccc1
IC50 (HeLa [4]): 37100 nM

Cc1ccc2c(c1)C(=O)OC1(C)CCCCN21 (centres undefined)
IC50 (4T1): 10.1 µg/mL (≈ 43.8 µM)
IC50 (HeLa [5]): 25.1 µg/mL (≈ 109 µM)

COc1ccc2c(c1)CC(Nc1ccccc1)(C(F)(F)F)n1c-2nc2ccccc21 (centres undefined)
IC50 (MDA-MB-231 [6]): 1300 nM

CCC1=C[C@@H]2CN(C1)Cc1c([nH]c3ccccc13)[C@@](C(=O)OC)(c1cc3c(cc1OC)N(C)[C@H]1[C@@](O)(C(=O)OC)[C@H](OC(C)=O)[C@]4(CC)C=CCN5CC[C@]31[C@@H]54)C2 [VINORELBINE]
IC50 (KBv200): 434 nM
IC50 (K562/Adr [7]): 558 nM

CCOC(=O)C1=C(Nc2ccc(OC)cc2)C[C@H](c2ccc(Cl)cc2)N(c2ccc(OC)cc2)[C@H]1c1ccc(Cl)cc1
IC50 (MCF7 [8]): 34.2 µg/mL (≈ 56.6 µM)

Cc1ccccc1C(c1c[nH]c2ccccc12)c1c[nH]c2ccccc12
IC50 (MCF7 [9]): 5690 nM

O=C1NC(/C=C2/C(c3ccccc3)=C(c3ccccc3)c3ccccc32)=NC2c3ccccc3OC12 (centres undefined)
IC50 (CAL-27): 8790 nM

Cc1cccc2c1C(=O)N1CCN(c3ccccc3)C1(C(F)(F)F)C2 (centres undefined)
IC50 (HeLa [10]): 1430 nM

CC(=O)O[C@@]12CO[C@@H]1C[C@H](O)[C@@]1(C)C(=O)[C@H](O)C3=C(C)[C@@H](OC(=O)[C@H](O)[C@@H](NC(=O)OC(C)(C)C)c4ccccc4)C[C@@](O)([C@@H](OC(=O)c4ccccc4)[C@H]21)C3(C)C [DOCETAXEL ANHYDROUS]
IC50 (KBv200): 104 nM
IC50 (K562/Adr [7]): 1030 nM

CC[C@H](C)[C@@H]1NC(=O)[C@H](Cc2ccccc2)NC(=O)CC[C@@H](C(=O)OC)NC(=O)COC(=O)/C=C/c2cccc3c(c[nH]c23)C[C@@H](C(=O)OCc2ccccc2)NC1=O
inhibition at 30 µM (HCC1806): 99%

CC12CCCCN1c1ccc(Br)cc1C(=O)O2 (centres undefined)
MIC (Candida albicans): 12.5 µg/mL (≈ 42.2 µM)

O=C1c2ccccc2-n2c1c(-c1ccc(Cl)cc1Br)c(S(=O)(=O)c1ccccc1)c2-c1ccccc1
IC50 [11]: 82.3 nM

Cc1ccccc1NC1(C(F)(F)F)Cc2ccccc2C(=O)N1CCO (centres undefined)
IC50 (HeLa [10]): 1130 nM

CCOC(=O)C1=C(Nc2ccc(Cl)cc2)C[C@H](c2ccc(OC)cc2)N(c2ccc(Cl)cc2)[C@H]1c1ccc(OC)cc1
MIC [12]: 12.5 µg/mL

COc1ccc(-c2c(C3(O)C=CC(=O)C=C3)[nH]c(=O)c3c2c2ccccc2n3Cc2ccccc2)cc1
IC50 (MDA-MB-231 [13]): 660 nM
IC50 (HepG2 [14]): 1390 nM

COC(=O)[C@@H](NC(=O)[C@H](CC(C)C)NC(=O)[C@H](Cc1ccccc1C1=CC(=O)C=CC1=O)NC(=O)[C@@H](NC(=O)OC(C)(C)C)C(C)(C)C)C(C)C
IC50 (U-87 MG): 32000 nM

Cc1c2n(c3ccc(F)cc13)C(O)(C(F)(F)F)C=C2c1ccccc1 (centres undefined)
IC50 (A549 [15]): 6340 nM
IC50 (HeLa [16]): 2690 nM

CCOc1cc(CC(=O)N[C@@H](CC(C)C)c2ccccc2N2CCCCC2)cc2c1C(=O)N[C@@H](C)C(=O)N[C@@H](C(C)C)C(=O)OC/C(c1ccccc1)=C\C2
fold change (FC) (K562/Adr [17]): 176.3

O=c1[nH]c(/C=C2/C(c3ccccc3)=C(c3ccccc3)c3cc(C(F)(F)F)ccc32)nc2ccccc12
IC50 (CAL-27): 9410 nM

CCOC(=O)c1sc(-c2ccc(OCC(C)C)c(C(Nc3ccc([N+](=O)[O-])cc3)P(=O)(OCC)OCC)c2)nc1C (centres undefined)
IC50 (MDA-MB-231 [18]): 6.3 µg/mL (≈ 10.4 µM)
IC50 (MCF7 [19]): 12.3 µg/mL (≈ 20.3 µM)
IC50 (DU-145): 2.13 µg/mL (≈ 3.52 µM)
IC50 (HeLa [20]): 9.6 µg/mL (≈ 15.9 µM)
IC50 (HepG2 [21]): 20.9 µg/mL (≈ 34.5 µM)

COC(=O)[C@]1(C)CC[C@]2(C)CC[C@]3(C)C4=CC=C5C(=CC(=O)C(OC(=O)CCCc6cn(CCCO[C@@H]7O[C@H](CO)[C@@H](O)[C@H](O)[C@H]7O)nn6)=C5C)[C@]4(C)CC[C@@]3(C)[C@@H]2C1
IC50 (SMMC-7721): 2780 nM
IC50 (L02): 4610 nM
IC50 (QGY-7703): 5560 nM

Cc1c2n(c3ccccc13)C(O)(C(F)(F)F)C=C2c1ccccc1 (centres undefined)
IC50 (A549 [15]): 1260 nM
IC50 (HeLa [16]): 31600 nM

COC(=O)[C@]1(C)CC[C@]2(C)CC[C@]3(C)C4=CC=C5C(=CC(=O)C(O)=C5C)[C@]4(C)CC[C@@]3(C)[C@@H]2C1 [PRISTIMERIN]
IC50 (SMMC-7721): 1970 nM
IC50 (L02): 3600 nM
IC50 (MDA-MB-231 [22]): 1010 nM
IC50 (QGY-7703): 2340 nM

CCOC(=O)c1sc(-c2ccc(OCC(C)C)c(C(Nc3ccc(C(F)(F)F)cc3I)P(=O)(OCC)OCC)c2)nc1C (centres undefined)
IC50 (MDA-MB-231 [18]): 8.54 µg/mL (≈ 11.3 µM)
IC50 (MCF7 [19]): 14.1 µg/mL (≈ 18.7 µM)
IC50 (DU-145): 3.34 µg/mL (≈ 4.43 µM)
IC50 (HeLa [20]): 12.3 µg/mL (≈ 16.3 µM)
IC50 (HepG2 [21]): 26.1 µg/mL (≈ 34.6 µM)

COC(=O)[C@H](CC(C)C)NC(=O)[C@H](Cc1ccccc1C1=CC(=O)C=CC1=O)NC(=O)[C@@H](NC(=O)OC(C)(C)C)C(C)(C)C
IC50 (HeLa [23]): 40000 nM

CCOc1cccc(-c2ccc3c(c2)c2ccccc2n3C)c1C(=O)Nc1cccc2cccnc12
IC50 (HeLa [4]): 9600 nM
IC50 (HCT-116 [24]): 15200 nM

CCOC(=O)c1sc(-c2ccc(OCC(C)C)c(C(Nc3ccc(OC)cc3)P(=O)(OCC)OCC)c2)nc1C (centres undefined)
IC50 (MDA-MB-231 [18]): 8.18 µg/mL (≈ 13.8 µM)
IC50 (MCF7 [19]): 12.5 µg/mL (≈ 21.2 µM)
IC50 (DU-145): 3.02 µg/mL (≈ 5.11 µM)
IC50 (HeLa [20]): 10.7 µg/mL (≈ 18.1 µM)
IC50 (HepG2 [21]): 22 µg/mL (≈ 37.3 µM)

CCCCCCN(C)CCn1cc(-c2cccc(C(=O)O)c2)nn1
IC50 [25]: 3010 nM

COC(=O)[C@@H]1Cc2c[nH]c3c(cccc23)/C=C/C(=O)OCCCC(=O)N[C@@H](CC(C)C)C(=O)N2CCC[C@H]2C(=O)N[C@@H](Cc2ccccc2)C(=O)N1
inhibition at 30 µM (HCC1806): 97%

C[Si](C)(C)c1ccc(C(c2c[nH]c3ccccc23)c2c[nH]c3ccccc23)cc1
IC50 (MCF7 [9]): 6710 nM
